The values below come from patent US20070021414A1, “1-'2-(4-Hydroxyphenyl)-2-hydroxyethyl!-piperidin-4-ol compounds as nmda receptor antagonists” (PFIZER, INC., priority 2003, published 2007).

Counter-ions that a name gives are not always drawn.

T1 sequence (Q12809 whole entry): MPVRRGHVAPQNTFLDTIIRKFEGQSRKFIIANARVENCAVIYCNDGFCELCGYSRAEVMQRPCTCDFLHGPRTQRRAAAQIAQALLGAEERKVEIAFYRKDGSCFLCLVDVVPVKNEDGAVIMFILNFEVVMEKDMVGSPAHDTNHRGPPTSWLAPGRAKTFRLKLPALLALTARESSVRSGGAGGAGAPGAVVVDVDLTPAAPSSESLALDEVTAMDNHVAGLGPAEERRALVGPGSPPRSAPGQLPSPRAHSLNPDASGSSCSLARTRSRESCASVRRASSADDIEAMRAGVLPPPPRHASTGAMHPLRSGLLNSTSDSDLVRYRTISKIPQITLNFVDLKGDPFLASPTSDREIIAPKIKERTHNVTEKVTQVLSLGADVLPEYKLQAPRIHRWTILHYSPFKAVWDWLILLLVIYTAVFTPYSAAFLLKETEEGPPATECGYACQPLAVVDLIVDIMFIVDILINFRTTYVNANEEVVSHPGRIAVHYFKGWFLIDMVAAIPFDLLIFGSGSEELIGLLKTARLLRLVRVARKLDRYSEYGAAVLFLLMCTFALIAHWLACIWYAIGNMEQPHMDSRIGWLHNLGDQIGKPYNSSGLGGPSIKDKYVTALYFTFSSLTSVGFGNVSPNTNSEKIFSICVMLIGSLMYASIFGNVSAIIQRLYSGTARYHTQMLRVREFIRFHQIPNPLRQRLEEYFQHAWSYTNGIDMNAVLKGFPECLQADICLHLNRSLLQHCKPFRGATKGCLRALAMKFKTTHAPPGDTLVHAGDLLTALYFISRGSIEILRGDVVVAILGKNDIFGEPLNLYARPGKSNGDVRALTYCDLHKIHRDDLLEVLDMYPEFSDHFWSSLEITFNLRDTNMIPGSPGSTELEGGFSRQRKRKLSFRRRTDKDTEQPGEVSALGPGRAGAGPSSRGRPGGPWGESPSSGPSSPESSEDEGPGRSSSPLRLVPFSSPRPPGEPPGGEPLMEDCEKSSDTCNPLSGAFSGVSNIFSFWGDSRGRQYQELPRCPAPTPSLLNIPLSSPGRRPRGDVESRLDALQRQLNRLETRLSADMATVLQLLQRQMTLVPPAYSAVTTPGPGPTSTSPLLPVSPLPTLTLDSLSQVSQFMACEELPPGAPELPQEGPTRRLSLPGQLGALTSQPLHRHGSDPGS

One data set has as its target T1, HERG potassium channel (Homo sapiens, UniProt Q12809).
T1 construct: expressed in transfected cells; host or cells: HEK293S cells (membrane homogenate)
Briefly: Human Dofetilide Binding. The note with it: ratio of [3H]-dofetilide binding Ki (HERG transfected HEK293S membranes) to NR2B binding Ki. As for the experimental part: Human BERG transfected HEK293S cells were prepared and grown in-house. The collected cells were suspended in 50 mM Tris-HCl (pH 7.4 at 4° C.) and homogenized using a hand held Polytron PT 1200 disruptor set at full power for 20 sec on ice. The homogenates were centrifuged at 48,000×g at 4° C. for 20 min. The pellets were then resuspended, homogenized, and centrifuged once more in the same manner. The final pellets were resuspended in an appropriate volume of 50 mM Tris-HCl, 10 mM KCl, 1 mM MgCl2 (pH 7.4 at 4° C.), homogenized, aliquoted and stored at −80° C. until use. An aliquot of membrane fractions was used for protein concentration determination using BCA protein assay kit (PIERCE) and ARVOsx plate reader (Wallac).
Binding assays were conducted in a total volume of 200 μl in 96-well plates. Twenty μl of test compounds were incubated with 20 μl of [^3H]-dofetilide (Amersham, final 5 nM) and 160 μl of membrane homogenate (25 μg protein) for 60 minutes at room temperature. Nonspecific binding was determined by 10 μM dofetilide at the final concentration. Incubation was terminated by rapid vacuum filtration over 0.5% presoaked GF/B Betaplate filter using Skatron cell harvester with 50 mM Tris-HCl, 10 mM KCl, 1 mM MgCl2, pH 7.4 at 4° C. The filters were dried, put into sample bags and filled with Betaplate Scint. Radioactivity bound to filter was counted with Wallac Betaplate counter.
Take `Cc1cc([C@H](O)[C@H](C)N2CCC(O)(c3ccc(F)cc3)CC2)ccc1O` [comparative compound A]: the “TI (Dofetilide Binding Ki [μM]/NR2B Binding Ki [nM]×1000)” value amounted to 220.

System in the next data set: not given
Assay: not given
Conditions: not given
The melting point is the temperature, or range, at which the solid turns liquid. In turn, `COc1ccc(C2(O)CCN(CC(O)c3cc(F)c(O)cc3F)CC2)cn1` (stereo not drawn) (as salt: hydrochloride) had a melting point of 199.5 °C.

Regarding `COc1ccc(C2(O)CCN(CC(O)c3cc(C)c(O)cc3C)CC2)cn1` (stereo not drawn), the melting point worked out at 156.5 °C.

In turn, `COCc1ccc(C2(O)CCN(CC(O)c3ccc(O)c(C)c3)CC2)cc1` (stereo not drawn) returned a melting point of 164.4 °C.

`COc1ccc(C2(O)CCN(CC(O)c3cc(C)c(O)cc3F)CC2)cn1` (stereo not drawn) yielded a melting point of 183.6 °C.

In turn, `COCc1ccc(C2(O)CCN(CC(O)c3ccc(O)cc3)CC2)cc1` (stereo not drawn) yielded a melting point of 169.6 °C.

Compound `Cc1cc(C(O)CN2CCC(O)(c3cccc(F)c3)CC2)c(F)cc1O` (stereo not drawn) had a melting point of 161.7 °C.

Compound `Cc1cnc(C2(O)CCN(CC(O)c3ccc(O)c(C)c3)CC2)s1` (stereo not drawn) had a melting point of 163.7 °C.

On to `Oc1cc(F)c(C(O)CN2CCC(O)(c3cccc(F)c3)CC2)cc1F` (stereo not drawn) (as salt: hydrochloride), for which the melting point is 207 °C.

For the compound `COc1ccc(C2(O)CCN(CC(O)c3ccc(O)c(C)c3)CC2)cn1` (stereo not drawn), the melting point was found to be 176 °C.

The compound `COCc1ccc(C2(O)CCN(CC(O)c3cc(C)c(O)cc3C)CC2)cc1` (stereo not drawn) yielded a melting point of 166.3 °C.

The compound `Oc1ccc(C(O)CN2CCC(O)(c3cccc(F)c3)CC2)c(F)c1` (stereo not drawn) gave a melting point of 186.1 °C.

As for `Oc1ccc(C(O)CN2CCC(O)(c3cccc(F)c3)CC2)cc1` (stereo not drawn), the melting point came out at 154.2 °C.

With `CCCOc1ccc(C2(O)CCN(CC(O)c3ccc(O)c(C)c3)CC2)cn1` (stereo not drawn), the melting point is 187.4 °C.

Take `Cc1cc(C(O)CN2CCC(O)(c3ccc4c(c3)COCC4)CC2)ccc1O` (stereo not drawn): the melting point was determined as 178.3 °C.

In the case of `COc1ccc(C2(O)CCN(CC(O)c3ccc(O)c(Cl)c3)CC2)cn1.Cl` (stereo not drawn), the melting point amounted to 214.3 °C.

For the compound `CCOc1ccc(C2(O)CCN(CC(O)c3ccc(O)c(C)c3)CC2)cn1` (stereo not drawn), the melting point was determined as 189.3 °C.

`COc1ccc(C2(O)CCN(CC(O)c3ccc(O)cc3)CC2)cn1` (stereo not drawn) showed a melting point of 198.8 °C.

Compound `Oc1ccc(C(O)CN2CCC(O)(c3ccc4c(c3)COCC4)CC2)c(F)c1` (stereo not drawn) showed a melting point of 186.1 °C.

For the compound `COc1ccc(C2(O)CCN(CC(O)c3ccc(O)c(C)c3)CC2)nc1F` (stereo not drawn), the melting point was 172.3 °C.

On to `COc1ccc(C2(O)CCN(CC(O)c3ccc(O)cc3Cl)CC2)cn1` (stereo not drawn), for which the melting point was 190.5 °C.
